In brackets after ≈: the same amount, converted by molar mass. Bounds are passed on as bounds.

One data set concerns Enterococcus faecalis. Nature of the data set: Inhibitory activity against enterococcus faecalis Van B. The data set is classed as functional.
A further data set deals with Enterococcus faecium. Nature of the data set: Inhibitory activity against enterococcus faecium Van A. Format: functional.
Data set [1] can be described thus: In vitro antibacterial activity against gram-negative organism Pseudomonas aeruginosa DPHD-2862. Format: functional.
For data set [2], the system named is Streptococcus pneumoniae. Nature of the data set: (§1) In vivo efficacy against Strep. administration. Format: functional.
For the next data set, the system named is Streptococcus pyogenes. Nature of the data set: In vitro antibacterial activity against gram-positive organism Streptococcus pyogenes EES61. Format: functional.
Data set [3] has as its system Streptococcus pneumoniae. The description is as §1. Format: functional. The source holds these as a separate data set.
Data set [4] can be described thus: Maximum plasma concentration in rats after an oral dose of 5 mg/kg. As to conditions: rat.
Data set [5] addresses T1, DNA gyrase (Escherichia coli) (UniProt P0AES6+P0AES4). Nature of the data set: In vitro antibacterial activity against gram-negative organism […] ATCC 13048. The data set is classed as functional. The following applies: Enterobacter aerogenes.
Data set [6] deals with T1, DNA gyrase (Escherichia coli). Nature of the data set: In vitro antibacterial against gram-negative organism Escherichia coli JUHL. The following applies: Escherichia coli K-12. The data set is classed as functional.
Data set [7] has the same target. Nature of the data set: In vitro antibacterial activity against gram-negative organism Klebsiella pneumoniae ATCC 8045. Format: functional.
Data set [8] has the same target. Nature of the data set: In vitro antibacterial activity against gram-negative organism Prov. stuartii CMX-640. The data set is classed as functional. The following applies: Providencia stuartii.
The nature of data set [9]: In vitro antibacterial activity against gram-negative organism Pseudomonas aeruginosa 5007. The data set is classed as functional. As to conditions: Pseudomonas aeruginosa; read-out: MIC.
The target of data set [10] is T2, DNA gyrase (Staphylococcus aureus) (UniProt P0A0K8+P20831). Nature of the data set: In vitro antibacterial activity against gram-positive organism Staphylococcus aureus 1775. Format: functional.
For data set [11], the target named is T2, DNA gyrase (Staphylococcus aureus). Nature of the data set: In vitro antibacterial activity against gram-positive organism Staphylococcus aureus ATCC 6538p. The data set is classed as functional.
The target is the same in data set [12]. Nature of the data set: In vitro antibacterial activity against gram-positive organism Staphylococcus aureus NCTC-10649M. Format: functional.
The target of data set [13] is T1, DNA gyrase (Escherichia coli). Nature of the data set: In vitro antibacterial activity against gram-positive organism Streptococcus bovis A-5169. The data set is classed as functional. The following applies: Streptococcus equinus.
For data set [14] the target is unchanged. Nature of the data set: In vitro antibacterial activity against gram-positive organism Enterococcus faecium ATCC 8043. Format: functional.
Data set [15] has the same target. The following applies: Escherichia coli K-12.
Description: Concentration which causes 50% of the gyrase (Escherichia coli H560)-mediated maximal DNA cleavage.
Data set [16] is described as follows: in vivo. The following applies: rat, po, 5 mg/kg.
Description: Oral bioavailability in rat (dose 5 mg/kg)
A short description of data set [17]: in vivo. The following applies: rat, plasma, po, 5 mg/kg.
The target in data set [18] is T1, DNA gyrase (Escherichia coli). Nature of the data set: In vivo efficacy against Escherichia coli JUHL after oral administration. Format: functional, organism-based. As to conditions: Escherichia coli K-12.
For data set [19] the target is unchanged. Nature of the data set: In vivo efficacy against Escherichia coli JUHL by subcutaneous administration. The following applies: Escherichia coli K-12. Format: functional, organism-based.
Data set [20] is described as follows: In vivo efficacy against Pseudomonas aeruginosa 5007 after subcutaneous administration. The data set is classed as functional. The following applies: Pseudomonas aeruginosa, sc; read-out: ED50.
Data set [21] has as its target T2, DNA gyrase (Staphylococcus aureus). Nature of the data set: In vivo efficacy against Staphylococcus aureus NCTC-10649M after oral administration. Format: functional, organism-based.
The target is the same in data set [22]. Nature of the data set: In vivo efficacy against Staphylococcus aureus NCTC-10649M after subcutaneous administration. Format: functional, organism-based.
The next data set has as its system Pseudomonas aeruginosa. Nature of the data set: In vivo efficacy against Pseudomonas aeruginosa 5007 following p.o. administration.
The nature of a further data set: physchem. The following applies: phosphate buffer, pH 7.4.
Where [23] appears, read: Pseudomonas aeruginosa, read-out: MIC.
The mark [24] stands for this setting: Streptococcus pyogenes, read-out: MIC.
[25] abbreviates: Streptococcus pneumoniae, read-out: ED50.

T2 sequence (P0A0K8 2-644 limits assumed): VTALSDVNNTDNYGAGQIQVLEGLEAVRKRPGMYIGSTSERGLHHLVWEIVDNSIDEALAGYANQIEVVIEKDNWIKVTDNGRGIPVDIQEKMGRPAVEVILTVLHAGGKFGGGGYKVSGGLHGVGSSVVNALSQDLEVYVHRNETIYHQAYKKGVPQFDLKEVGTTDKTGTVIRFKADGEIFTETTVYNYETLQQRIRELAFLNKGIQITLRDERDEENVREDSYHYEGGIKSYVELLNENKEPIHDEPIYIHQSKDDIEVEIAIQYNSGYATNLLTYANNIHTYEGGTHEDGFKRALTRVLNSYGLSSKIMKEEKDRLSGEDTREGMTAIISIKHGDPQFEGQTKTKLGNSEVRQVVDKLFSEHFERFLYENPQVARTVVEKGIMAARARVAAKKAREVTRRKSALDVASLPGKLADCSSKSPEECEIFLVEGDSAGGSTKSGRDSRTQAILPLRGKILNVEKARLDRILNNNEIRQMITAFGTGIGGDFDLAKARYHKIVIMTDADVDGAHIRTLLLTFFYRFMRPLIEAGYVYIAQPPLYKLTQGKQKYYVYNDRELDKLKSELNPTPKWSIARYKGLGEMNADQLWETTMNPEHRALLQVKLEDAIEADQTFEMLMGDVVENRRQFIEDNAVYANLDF
T2 sequence (P20831 whole entry partner): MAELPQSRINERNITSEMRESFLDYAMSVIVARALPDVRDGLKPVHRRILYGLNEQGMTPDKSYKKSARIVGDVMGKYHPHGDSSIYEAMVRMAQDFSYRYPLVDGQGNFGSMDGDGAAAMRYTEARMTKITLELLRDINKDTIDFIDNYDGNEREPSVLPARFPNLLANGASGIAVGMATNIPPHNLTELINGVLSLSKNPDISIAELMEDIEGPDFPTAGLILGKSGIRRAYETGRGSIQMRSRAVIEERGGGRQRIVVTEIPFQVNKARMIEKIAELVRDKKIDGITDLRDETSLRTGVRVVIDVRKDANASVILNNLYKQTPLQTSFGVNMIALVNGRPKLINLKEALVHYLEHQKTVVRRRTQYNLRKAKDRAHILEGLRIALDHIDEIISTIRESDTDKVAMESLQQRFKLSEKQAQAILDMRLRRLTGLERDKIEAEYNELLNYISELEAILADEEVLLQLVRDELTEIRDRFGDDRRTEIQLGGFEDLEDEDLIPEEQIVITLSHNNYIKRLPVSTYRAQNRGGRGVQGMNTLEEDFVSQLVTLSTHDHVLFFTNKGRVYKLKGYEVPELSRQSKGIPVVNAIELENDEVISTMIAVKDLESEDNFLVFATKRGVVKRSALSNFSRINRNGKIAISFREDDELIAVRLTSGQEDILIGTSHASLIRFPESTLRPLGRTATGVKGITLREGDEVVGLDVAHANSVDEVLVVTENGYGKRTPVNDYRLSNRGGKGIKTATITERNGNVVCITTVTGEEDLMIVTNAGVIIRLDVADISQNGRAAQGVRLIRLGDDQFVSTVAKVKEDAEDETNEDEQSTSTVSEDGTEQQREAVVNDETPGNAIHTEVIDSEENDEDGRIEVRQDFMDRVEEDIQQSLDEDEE
Description for physchem: Aqueous solubility in pH 7.4 phosphate buffer (0.05 M) at 37 degree C

Consider `Cc1c(N2C[C@@H]3CCCN[C@@H]3C2)c(F)cn2c(=O)c(C(=O)O)cc(C3CC3)c12` (stereo in doubt; 45n), for which the MIC against Enterococcus faecalis was determined as 0.06 µg/mL (≈ 0.156 µM); in the data set on Enterococcus faecium, 0.5 µg/mL (≈ 1.3 µM); in data set [1] it was 3.1 µg/mL (≈ 8.04 µM); in the data set on Streptococcus pyogenes, 0.01 µg/mL (≈ 0.0259 µM). The ED50 (commonly the midpoint of the dose-response relation) worked out at 4.4 mg/kg with Streptococcus pneumoniae [2] and 12.5 mg/kg in the data set on Streptococcus pneumoniae [3].

For `Cc1c(N2C[C@@H](N)[C@@H](C)C2)c(F)cn2c(=O)c(C(=O)O)cc(C3CC3)c12`, in [4], the Cmax (as a rule, the maximum level reached in the sampled fluid or tissue) amounted to 170 ng/mL. The MIC in [5] was 0.02 µg/mL (≈ 0.0556 µM); in data set [6] it was 0.005 µg/mL (≈ 0.0139 µM); in data set [7] it was 0.005 µg/mL (≈ 0.0139 µM); in data set [8] it was 0.78 µg/mL (≈ 2.17 µM); in [9], 0.1 µg/mL (≈ 0.278 µM); in [1] (setting [23]), 1.56 µg/mL (≈ 4.34 µM). For the same compound, the MIC stood at 0.78 µg/mL (≈ 2.17 µM) in data set [10]; 0.02 µg/mL (≈ 0.0556 µM) in data set [11]; 0.02 µg/mL (≈ 0.0556 µM) in data set [12]; 0.02 µg/mL (≈ 0.0556 µM) in data set [13]; 0.05 µg/mL (≈ 0.139 µM) in the data set on Streptococcus pyogenes (setting [24]); 0.05 µg/mL (≈ 0.139 µM) in [14]. In [15], this compound returned a CC50 of 0.06 µg/mL (≈ 0.167 µM). The bioavailability – broadly, the share of a dose that reaches the circulation, judged against a reference dose that is usually intravenous – in the data set “in vivo [16]” is 23%. In addition, in “in vivo [17]”, the half-life (usually the time in which the quantity being followed falls by half) is 2.1 h.

For `Cc1c(N2CCC(N)C2)c(F)cn2c(=O)c(C(=O)O)cc(C3CC3)c12` (stereo not drawn), the ED50 is less than 0.3 mg/kg in data set [18]; 0.4 mg/kg in data set [19]; 0.5 mg/kg in [20]; 6.2 mg/kg with Streptococcus pneumoniae [2]; 4.1 mg/kg in data set [21]; 1 mg/kg in data set [22]. Also, the ED50 in the data set with Streptococcus pneumoniae [3] (setting [25]) is 12.5 mg/kg; in the data set with Pseudomonas aeruginosa it was 4.6 mg/kg. Moreover, the MIC in data set [5] was determined as 0.005 µg/mL (≈ 0.0145 µM); in data set [6], 0.002 µg/mL (≈ 0.00579 µM); in data set [7], 0.002 µg/mL (≈ 0.00579 µM); in data set [8], 0.2 µg/mL (≈ 0.579 µM); in data set [9] it was 0.05 µg/mL (≈ 0.145 µM); in data set [1] (setting [23]), 0.78 µg/mL (≈ 2.26 µM). Moreover, the MIC in data set [10] came to 1.56 µg/mL (≈ 4.52 µM); in [11] it was 0.01 µg/mL (≈ 0.029 µM); in [12], 0.01 µg/mL (≈ 0.029 µM); in data set [13] it was 0.02 µg/mL (≈ 0.0579 µM); with Streptococcus pyogenes (setting [24]), 0.02 µg/mL (≈ 0.0579 µM); in data set [14] it was 0.02 µg/mL (≈ 0.0579 µM). Besides, the CC50 in [15] stood at 0.05 µg/mL (≈ 0.145 µM).

`CC(NC(=O)C(C)NC1CCN(c2nc3c(-c4ccc(F)cc4F)cc(C(=O)O)c(=O)n3cc2F)C1)C(=O)O` (stereo not drawn): the ED50 in data set [18] was 14.3 mg/kg; in [19], less than 2.5 mg/kg; in data set [20], 14.8 mg/kg; in [21], 3 mg/kg; in [22], 2.8 mg/kg; in the data set with Streptococcus pneumoniae [3], 49.7 mg/kg. Further, the ED50 with Streptococcus pneumoniae [3] (setting [25]) is 140 mg/kg; with Pseudomonas aeruginosa, 68.8 mg/kg. For the same compound, the solubility (commonly the dissolved amount per volume that the medium holds) in “physchem” is 1000 µg/mL (≈ 1830 µM).

`Cc1c(N2CC[C@H](N)C2)c(F)cn2c(=O)c(C(=O)O)cc(C3CC3)c12` [ABT-719] returned a Cmax in data set [4] of 270 ng/mL. The MIC in the data set with Enterococcus faecalis amounted to 0.03 µg/mL (≈ 0.0869 µM); in data set [5], 0.005 µg/mL (≈ 0.0145 µM); against Enterococcus faecium, 0.25 µg/mL (≈ 0.724 µM); in data set [6], 0.002 µg/mL (≈ 0.00579 µM); in data set [7] it was 0.005 µg/mL (≈ 0.0145 µM); in [8] it was 0.2 µg/mL (≈ 0.579 µM). For the same compound, the MIC in [9] was 0.05 µg/mL (≈ 0.145 µM); in data set [1] (setting [23]), 0.78 µg/mL (≈ 2.26 µM); in data set [10], 0.78 µg/mL (≈ 2.26 µM); in data set [11], 0.01 µg/mL (≈ 0.029 µM); in [12] it was 0.01 µg/mL (≈ 0.029 µM); in data set [13], 0.02 µg/mL (≈ 0.0579 µM). Also, the MIC (with Streptococcus pyogenes (setting [24]); in data set [14]) was 0.02 µg/mL (≈ 0.0579 µM) each time. Moreover, the ED50 in data set [18] is 0.6 mg/kg; in data set [19], 0.1 mg/kg; in [20], 1.9 mg/kg; with Streptococcus pneumoniae [2], 1.6 mg/kg; in data set [21], 3.4 mg/kg; in data set [22], 0.6 mg/kg. Moreover, the ED50 in the data set on Streptococcus pneumoniae [3] (setting [25]) was 5.3 mg/kg; in the data set with Pseudomonas aeruginosa it was 14.5 mg/kg. The CC50 in [15] was 0.03 µg/mL (≈ 0.0869 µM). Also, the bioavailability in “in vivo [16]” was 32%. Further, the half-life in the data set “in vivo [17]” was 1.2 h.

Source of the values: ChEMBL document CHEMBL1129258, “Synthesis and structure-activity relationships of 2-pyridones: a novel series of potent DNA gyrase inhibitors as antibacterial agents” (J Med Chem, 1996).
